The values below come from PMC5244594 (Biotechnology for Biofuels, 2017).

The assay addresses T1, GLT-1 (Neurospora crassa, UniProt Q1K4S3).
T1 construct: gene NCU01633
The experiment in a line: radiolabeled glucose uptake in S. cerevisiae EBY.VW4000. It counts as cell-based. As to conditions: labelled compound; transport into whole yeast cells expressing the eGFP fusion.

T1 sequence (Q1K4S3 entry or part of it): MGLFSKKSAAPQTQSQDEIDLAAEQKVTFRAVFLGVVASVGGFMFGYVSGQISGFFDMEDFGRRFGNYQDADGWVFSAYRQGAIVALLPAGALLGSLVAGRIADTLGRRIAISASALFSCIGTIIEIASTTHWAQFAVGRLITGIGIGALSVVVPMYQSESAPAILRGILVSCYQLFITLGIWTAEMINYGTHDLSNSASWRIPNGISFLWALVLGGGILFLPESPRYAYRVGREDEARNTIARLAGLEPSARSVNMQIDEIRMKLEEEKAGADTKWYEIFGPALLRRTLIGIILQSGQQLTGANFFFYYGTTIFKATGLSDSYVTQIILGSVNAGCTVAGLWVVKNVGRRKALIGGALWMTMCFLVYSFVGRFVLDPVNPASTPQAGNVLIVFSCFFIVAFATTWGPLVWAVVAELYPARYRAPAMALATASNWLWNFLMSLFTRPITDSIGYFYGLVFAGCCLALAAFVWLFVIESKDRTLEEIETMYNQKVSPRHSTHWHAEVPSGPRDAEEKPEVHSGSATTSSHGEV

Regarding `OC[C@H]1OC(O)[C@H](O)[C@@H](O)[C@@H]1O` (stereo partly shown) [glucose], the Km (usually the substrate concentration at which the rate is half of its maximum) came out at 18.4 ± 3.38 mM.
